Experimental data taken from patent US20210308101A1, “METHODS OF TREATING FIBROMYALGIA” (Aptinyx Inc., priority 2019, published 2021).

What was measured:
[1] = system: subjects with fibromyalgia; assay: QST: MAST pressure pain sensitivity at the thumbnail; assay type: in vivo, human
Text: The multi-modal automated sensory testing (MAST) system was used to measure localized pressure sensitivity at an asymptomatic, neutral body site, the thumbnail. The MAST system is a nonsignificant-risk investigational device that applies a computer-controlled mechanical stimulation at precisely controlled intensity levels and durations. The validity in the measurement of centrally-mediated pain sensitivity has been discussed extensively. The MAST system delivered an ascending series of computer-controlled, 5-second pressures at 20-second intervals (with 20% jitter) to the subject's thumbnail bed, beginning at 0.25 to 0.5 kg/cm^2 and increasing in steps of 0.25 to 0.50 kg/cm^2. Pain intensity was rated after each pressure on a 0 to 100 NRS. Testing was terminated when the first of 3 possible stop conditions were met: 1) subject reached her personal pain tolerance and requested to stop the test, 2) subject reported a pain intensity rating of >80, or 3) the maximum pressure of 10 kg/cm^2 was delivered. A regression model was used fit the stimulus-response data obtained from this procedure and interpolate Pain50, defined as the pressure intensity that evokes a moderate level of suprathreshold pressure pain (i.e., 50/100). Additional derived variables included: 1) Pressure pain threshold, defined as the first pressure in a series of at least 2 consecutive pressures that elicited a NRS pain rating >0; 2) slope of the stimulus-response function as a measure of the rate of pain increase; and 3) pressure pain tolerance, defined as the last pressure recorded in the stimulus response profile. These variables were used to determine the effect of drug and placebo treatments on pain sensitivity.
(§1) QST data were analyzed at the University of Michigan CPFRC. Dependent variables were the MAST derived outcomes (Pain50, pressure pain threshold, pain tolerance, and pain ratings at 2 kg/cm2), algometry-derived pressure pain thresholds (mean of three trials) at each anatomical site, average cuff intensity ratings (mean of ratings at all stimulus levels during the ascending or random sequences), and average visual task unpleasantness and brightness intensity ratings (mean of ratings at all stimulus levels). Practice data were not analyzed. Overall pain intensity and unpleasantness NRS scores as well as stimulus response curves for each test were assessed during post hoc analyses. Data points displaying measurement artefacts, including device malfunction or user error, were set to missing. Single subject QST variables were analyzed using paired t-tests and/or nonparametric Wilcoxon signed-rank tests in SPSS or R.

[2] = system: subjects with fibromyalgia; assay: Multidimensional Inventory of Subject Cognitive Impairment (MISCI); assay type: in vivo, human; settings: not statistically significant
Text: As used herein, “MISCI” is Multidimensional Inventory of Subject Cognitive Impairment. The MISCI is a 10-item assessment that measures cognitive function. The instrument examines 5 cognitive domains: mental clarity, memory, language, executive functioning, and attention/concentration. The first 6 items are positively worded and reflect perceived cognitive abilities and the last 4 items are negatively worded and reflect perceived cognitive difficulties. The same scoring metric is used for both response scales. However, the scores on items 7-10 must be reverse-coded prior to summing the responses to generate the total score due to the negative wording of these items. Here is a list of the categorical responses with the numeric values that make up the total score: • Positively Worded Items 1-6:“Not at All”=1; “A Little Bit”=2; “Somewhat”=3; “Quite a Bit”=4; “Very Much”=5 • Negatively Worded Items 7-10: “Never”=5; “Rarely”=4; “Sometimes”=3; “Often”=2; “Very Often”=1
The total score was calculated by the sum of all the 10 items ranging from 10 to 50, with higher scores indicating better perceived cognitive functioning (i.e. lower impairment). […] The MISCI assessment was collected and analyzed at visits Screening, Day 1, Week 2, Week 4, Week 6, and Follow-up (Week 7). […] Additionally, the treatment group comparisons were analyzed using the paired ttest and nonparametric Wilcoxon signed-rank test.

[3] = system: subjects with fibromyalgia; assay: Patient Global Impression of Change (PGI-C); assay type: in vivo, human
Text: As used herein, the “PGI-C” is Patient Global Impression of Change. The PGI-C is a 7-point Likert scale that allows subjects to rate the change in the disease state from study initiation to specific time points during the study or at the end of the study. It provides the subject's impression of overall change.
The PGI-C data were collected and analyzed at visits Week 2, Week 4, Week 6, and Follow-up (Week 7). […] The actual values and changes from treatment periods at Week 4 and Week 6 were summarized using descriptive statistics. A frequency distribution was created for each analysis visit based on the collected categorical values. The analysis categorical values stated above were summarized by frequency distributions and p-values using McNemar's test.

[4] = system: subjects with fibromyalgia; assay: QST: digital algometer pressure pain threshold (trapezius, wrist, patella); assay type: in vivo, human
Experimental: Localized pressure pain sensitivity was also measured bilaterally at 3 additional body regions: trapezius, wrist, and patella. Examination of multiple sites across all quadrants of the body permitted analysis of the distribution of pain sensitivity. Sensitivity was measured using a digital algometer with a 1-cm^2 flat rubber probe. […] Measurements were conducted 2 to 3 times (15- to 20-second intervals) at each site.
as §1

[5] = system: subjects with fibromyalgia; assay: Safety evaluation in the fibromyalgia study; assay type: in vivo, human; settings: 20 mg then 200 mg PO QD, 2 weeks each
Text: Adverse events (AEs), vital signs, electrocardiograms, physical examinations, Columbia Suicide Rating Scales, and clinical laboratory samples were collected throughout the study.
• Adverse events • Vital sign measurements • Clinical laboratory test results • Electrocardiogram results • Physical examination findings • Columbia-Suicide Severity Rating Scale (C-SSRS)

NMDAR = NMDAR modulation (description); settings: low concentrations of endogenous agonist (glycine or D-serine), in the presence of glutamate

SMILES: CC(C)C(=O)N1CCC[C@]12CN([C@H](C(N)=O)[C@@H](C)O)C2=O [NYX-2925, (2S, 3R)-3-hydroxy-2-((R)-5-isobutyryl-1-oxo-2,5-diazaspiro[3.4]octan-2-yl)butanamide]
- MAST Pain50 threshold ([1]; NYX-2925 20 mg relative to baseline, p=0.079): marginal decrease in threshold
- pain thresholds of the MAST test ([1]; NYX-2925 200 mg): not significantly altered
- rating of pain unpleasantness evoked by MAST testing ([1]; NYX-2925 200 mg, baseline 50.00±24.24, p=0.038): 42.14±19.34
- rating of overall pain intensity evoked by MAST testing ([1]; NYX-2925 200 mg, baseline 51.43±15.01, p=0.035): 44.76±12.19 NRS units
- MISCI Total score, mean change ([2]; Week 2 (placebo) to Week 4 (NYX-2925 20 mg)): 1.1
- MISCI Total score, mean change ([2]; Week 2 (placebo) to Week 6 (NYX-2925 200 mg)): 0.9
- Patient Global Impression of Change ([3]; post hoc, improved including minimally improved, 20 mg and 200 mg versus placebo): a larger proportion of subjects had a reduction of severity
- Patient Global Impression of Change ([3]; traditional definition of improved (very much improved, much improved)): little, if any, change in severity
- right trapezius pressure pain threshold ([4]; 200 mg, placebo 1.77±1.53, p=0.047): 1.58±1.37 kgf/cm^2
- left wrist pressure pain threshold ([4]; NYX-2925 20 mg, baseline 1.60±1.11, p=0.042): 1.30±1.08 kgf/cm^2
- right wrist pressure pain threshold ([4]; NYX-2925 20 mg, baseline 1.64±1.30, p=0.021): 1.28±1.10 kgf/cm^2
- right wrist pressure pain threshold ([4]; NYX-2925 200 mg, baseline 1.64±1.30, p=0.042): 1.32±1.15 kgf/cm^2
- discontinuations due to treatment-emergent adverse events (TEAE) [5]: no discontinuations
- safety and tolerability [5]: safe and well tolerated
- serious adverse events [5]: No serious adverse events
- activity at the NMDAR (NMDAR): partially activates the NMDAR
